Experiment: Absorption rate of chlorpyrifos onto LDPE and ethylene/acrylic acid (EAA) pellets
Type: physicochemical
Settings: 85° C.; for Actual Weight % Chlorpyrifos Found in Copolymer EAA: EAA (Primacor 1430) pellets; for % of Chlorpyrifos Absorbed onto Copolymer EAA: EAA pellets, relative to 0.88% maximum; for Actual Weight % Chlorpyrifos Found in LDPE / % of Chlorpyrifos Absorbed onto LDPE: LDPE pellets; for % of Chlorpyrifos Absorbed onto LDPE: relative to 0.90% maximum
Method: A constant temperature oven is set at 85° C. by using a thermowatch controller and an infrared heat lamp. A wide mouth quart jar containing 247.5 g of 749 low density polyethylene (LDPE) or an equivalent amount of Primacor® 1430 pellets is placed into the oven and left overnight. Primacor® is a copolymer of ethylene/acrylic acid (EAA) containing 9 percent (%) by weight acrylic acid. Two and one-half grams of liquid Dursban® insecticide heated to 50° C. are added to each jar to give a calculated concentration of 1 percent chlorpyrifos in the polymer. The Dursban® insecticide contains 99 percent chlorpyrifos and 1 percent inert ingredients. The jar is shaken initially, returned to the oven, and then removed every 5 minutes and reshaken. A first sample of 10 pellets is taken from the jar after 15 minutes. The pellets are placed on an ice water bath for 1 minute, removed with tweezers and placed into a 50 ml beaker. The pellets are rinsed with 5 mls of acetone to remove excess water. The pellets are rinsed with 5 mls of methylene chloride to remove chlorpyrifos coated on the pellet surface. The solvent is decanted after each rinse and the pellets are dried by blowing nitrogen over them for three minutes. The pellets are weighed on an analytical balance, placed into a 2 ounce bottle and the chlorpyrifos absorbed by the pellets is extracted by shaking the pellets with 20 mls of chloroform on an automatic shaker overnight. The chloroform extract, after appropriate dilution, is measured at 292 nanometers wave length on an ultraviolet (UV) spectrophotometer. The absorbence of the sample extract is compared to a standard curve of absorbence from a known concentration of chlorpyrifos in chloroform. The absorption rate for the Primacor® 1430 pellets is determined in the same manner as the LDPE.

[1] = assumed, based on a time of 180 minutes

CCOP(=S)(OCC)Oc1nc(Cl)c(Cl)cc1Cl [Chlorpyrifos, O,O-diethyl-3,5,6-trichloro-2-pyridyl phosphorothioate]
Actual Weight % Chlorpyrifos Found in Copolymer EAA (0 minutes): 0.0 Weight % | Actual Weight % Chlorpyrifos Found in Copolymer EAA (15 minutes): 0.71 Weight % | Actual Weight % Chlorpyrifos Found in Copolymer EAA (30 minutes): 0.80 Weight % | Actual Weight % Chlorpyrifos Found in Copolymer EAA (45 minutes): 0.85 Weight % | Actual Weight % Chlorpyrifos Found in Copolymer EAA (60 minutes): 0.84 Weight % | Actual Weight % Chlorpyrifos Found in Copolymer EAA (90 minutes): 0.83 Weight % | Actual Weight % Chlorpyrifos Found in Copolymer EAA (120 minutes): 0.95 Weight % | Actual Weight % Chlorpyrifos Found in Copolymer EAA (150 minutes): 0.86 Weight % | Actual Weight % Chlorpyrifos Found in Copolymer EAA (180 minutes): 0.88 Weight % | % of Chlorpyrifos Absorbed onto Copolymer EAA (0 minutes): 0.0% | % of Chlorpyrifos Absorbed onto Copolymer EAA (15 minutes): 80.7% | % of Chlorpyrifos Absorbed onto Copolymer EAA (30 minutes): 90.9% | % of Chlorpyrifos Absorbed onto Copolymer EAA (45 minutes): 96.6% | % of Chlorpyrifos Absorbed onto Copolymer EAA (60 minutes): 95.5% | % of Chlorpyrifos Absorbed onto Copolymer EAA (90 minutes): 94.3% | % of Chlorpyrifos Absorbed onto Copolymer EAA (120 minutes): 108.0% | % of Chlorpyrifos Absorbed onto Copolymer EAA (150 minutes): 97.7% | % of Chlorpyrifos Absorbed onto Copolymer EAA (180 minutes): 100.0% | Actual Weight % Chlorpyrifos Found in LDPE (0 minutes): 0.0 Weight % | % of Chlorpyrifos Absorbed onto LDPE (0 minutes): 0.0% | Actual Weight % Chlorpyrifos Found in LDPE (15 minutes): 0.64 Weight % | % of Chlorpyrifos Absorbed onto LDPE (15 minutes): 71.1% | Actual Weight % Chlorpyrifos Found in LDPE (30 minutes): 0.76 Weight % | % of Chlorpyrifos Absorbed onto LDPE (30 minutes): 84.4% | Actual Weight % Chlorpyrifos Found in LDPE (45 minutes): 0.86 Weight % | % of Chlorpyrifos Absorbed onto LDPE (45 minutes): 95.6% | Actual Weight % Chlorpyrifos Found in LDPE (60 minutes): 0.91 Weight % | % of Chlorpyrifos Absorbed onto LDPE (60 minutes): 101.1% | Actual Weight % Chlorpyrifos Found in LDPE (90 minutes): 0.89 Weight % | % of Chlorpyrifos Absorbed onto LDPE (90 minutes): 98.9% | Actual Weight % Chlorpyrifos Found in LDPE (120 minutes): 0.92 Weight % | % of Chlorpyrifos Absorbed onto LDPE (120 minutes): 102.2% | Actual Weight % Chlorpyrifos Found in LDPE (150 minutes): 1.07 Weight % | % of Chlorpyrifos Absorbed onto LDPE (150 minutes): 118.9% | Actual Weight % Chlorpyrifos Found in LDPE (180 minutes): 0.90 Weight % | % of Chlorpyrifos Absorbed onto LDPE (180 minutes): 100.0% | maximum absorption by the Copolymer EAA [1]: 0.88 % by weight | maximum absorption of chlorpyrifos by the LDPE [1]: 0.90 % by weight

— patent US4888174A, “Insecticidal polymeric compositions” (priority 1988, dated 1989)
